Patent US10381110B2, “Molecules” (University of Dundee, priority 2010, dated 2019)
Counter-ions that a name gives are not always drawn. Like-named read-outs stand apart in the source and are kept apart here.

What was measured:
α1B (Alpha1B) = biological target: T1, α1B (Alpha1B) (Homo sapiens, UniProt P35368); assay: Secondary radioligand binding assay (Ki)
T1 sequence (P35368 1-520): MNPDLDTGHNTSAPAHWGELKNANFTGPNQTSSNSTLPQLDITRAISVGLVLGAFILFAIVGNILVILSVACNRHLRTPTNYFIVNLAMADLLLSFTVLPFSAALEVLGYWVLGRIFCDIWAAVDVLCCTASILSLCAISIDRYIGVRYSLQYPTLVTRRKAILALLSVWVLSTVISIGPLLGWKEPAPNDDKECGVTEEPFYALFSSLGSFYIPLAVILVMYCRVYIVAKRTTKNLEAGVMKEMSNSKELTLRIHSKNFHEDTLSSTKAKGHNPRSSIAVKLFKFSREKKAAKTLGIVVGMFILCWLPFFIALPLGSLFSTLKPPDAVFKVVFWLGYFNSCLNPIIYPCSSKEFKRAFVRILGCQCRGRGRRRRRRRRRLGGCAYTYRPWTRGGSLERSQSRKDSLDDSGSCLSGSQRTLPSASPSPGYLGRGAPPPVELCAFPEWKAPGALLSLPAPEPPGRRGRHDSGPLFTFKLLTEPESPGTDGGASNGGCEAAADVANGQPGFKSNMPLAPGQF
Method: (§1) Radioligand is diluted to five times the assay concentration (see Table 18) in Standard Binding Buffer. Typically, the assay concentration of radioligand is a value between one half the KD and the KD of a particular radioligand at its target. 50 μl aliquots of radioligand are dispensed into the wells of a 96-well plate containing 100 μl of Standard Binding Buffer. Then, duplicate 50 μl aliquots of the test and reference compound dilutions are added.
(§2) The 250 μl reactions are incubated at room temperature and shielded from light (to prevent photolysis of light-sensitive ligands) for 1.5 hours, then harvested by rapid filtration onto Whatman GF/B glass fiber filters pre-soaked with 0.3% polyethyleneimine using a 96-well Brandel harverster. Four rapid 500 μl washes are performed with chilled Standard Binding Buffer to reduce non-specific binding. Filters are placed in 6 ml scintillation tubes and allowed to dry overnight. The next day, 4 ml of EcoScint scintillation cocktail (National Diagnostics) are added to each tube. The tubes are capped, labeled, and counted by liquid scintillation counting. […] The filter mats are dried, then scintillant is melted onto the filters and the radioactivity retained on the filters is counted in a Microbeta scintillation counter.
(§3) Raw data (dpm) representing total radioligand binding (i.e. specific+non-specific binding) are plotted as a function of the logarithm of the molar concentration of the competitor (i.e. test or reference compound).
(§4) Adrenergic Receptors: α1A, α1B, α2A, α2B, α2C, β1, β2, β3
(§5) Membrane Fraction Source: Transiently or stably transfected cell lines (e.g. HEK293, COS, CHO, NIH3T3)
(§6) The method is carried out in the manner described for the serotonin receptor assay above, except where described below. Eleven dilutions (5× assay concentration) of the test and reference (see Table 20) compounds are prepared in the appropriate buffer by serial dilution, as previously described. Radioligand is diluted to five times the assay concentration (see Table 21) in the appropriate buffer.
(§7) The 250 μl reactions are incubated at room temperature and shielded from light (to prevent photolysis of light-sensitive ligands) for 1 hour (for α1 receptors, 40 min for α2 receptors, and 1.5 hours for β receptors), then harvested by rapid filtration onto Whatman GF/B glass fiber filters pre-soaked with 0.3% polyethyleneimine using a 96-well Brandel harverster. Four rapid 500-μl washes are performed with chilled distilled water (for α1 and β receptors) or 0.1% polyethyleneimine (for α2 receptors) to reduce non-specific binding. Filters are placed in 6 ml scintillation tubes and allowed to dry overnight and the samples are treated to obtain data as described above.

α1A (Alpha1A) = biological target: T2, α1A (Alpha1A) (Homo sapiens, UniProt P35348); assay: Secondary radioligand binding assay (Ki)
T2 sequence (P35348 1-466): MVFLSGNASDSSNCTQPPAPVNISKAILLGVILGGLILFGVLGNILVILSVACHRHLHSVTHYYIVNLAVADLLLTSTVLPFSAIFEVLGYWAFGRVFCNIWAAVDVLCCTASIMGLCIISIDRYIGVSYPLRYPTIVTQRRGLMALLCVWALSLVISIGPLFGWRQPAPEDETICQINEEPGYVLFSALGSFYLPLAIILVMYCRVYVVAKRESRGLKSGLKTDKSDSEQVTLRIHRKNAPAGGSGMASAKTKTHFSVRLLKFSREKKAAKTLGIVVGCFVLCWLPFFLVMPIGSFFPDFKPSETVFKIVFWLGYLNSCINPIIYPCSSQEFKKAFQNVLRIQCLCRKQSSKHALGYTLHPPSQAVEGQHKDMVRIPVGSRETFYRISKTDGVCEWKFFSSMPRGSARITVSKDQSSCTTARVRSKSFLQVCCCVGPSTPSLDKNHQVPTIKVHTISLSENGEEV
Method: as §1, §2, §3, §4, §5, §6, §7

5-HT1B = 5-HT1B (Homo sapiens, UniProt P28222); assay: Secondary radioligand binding assay (Ki)
Chain of 5-HT1B (P28222 whole entry, species assumed): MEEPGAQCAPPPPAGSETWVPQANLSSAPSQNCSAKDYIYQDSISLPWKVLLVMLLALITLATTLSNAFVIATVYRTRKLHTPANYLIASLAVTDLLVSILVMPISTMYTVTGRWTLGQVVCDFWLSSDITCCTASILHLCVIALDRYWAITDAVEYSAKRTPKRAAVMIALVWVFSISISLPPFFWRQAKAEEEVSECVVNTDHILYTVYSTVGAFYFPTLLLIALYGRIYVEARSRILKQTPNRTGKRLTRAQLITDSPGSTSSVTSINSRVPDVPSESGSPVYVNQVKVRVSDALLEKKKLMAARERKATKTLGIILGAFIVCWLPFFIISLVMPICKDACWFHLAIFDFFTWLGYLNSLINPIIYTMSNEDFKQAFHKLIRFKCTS
Method: (§8) Assay Buffer: Standard Binding Buffer (50 mM Tris-HCl, 10 mM MgCl2, 1 mM EDTA, pH 7.4)
(§9) Membrane Fraction Source: Transiently or stably transfected cell lines (e.g., HEK293, COS, CHO, NIH3T3)
as §1, §2, §3

Alpha1D [1] = biological target: T3, Alpha1D (Homo sapiens, UniProt P25100); assay: Primary radioligand binding assay (NIMH PDSP); details: primary radiobinding assay, [3H]Prazosin
T3 sequence (P25100 1-572): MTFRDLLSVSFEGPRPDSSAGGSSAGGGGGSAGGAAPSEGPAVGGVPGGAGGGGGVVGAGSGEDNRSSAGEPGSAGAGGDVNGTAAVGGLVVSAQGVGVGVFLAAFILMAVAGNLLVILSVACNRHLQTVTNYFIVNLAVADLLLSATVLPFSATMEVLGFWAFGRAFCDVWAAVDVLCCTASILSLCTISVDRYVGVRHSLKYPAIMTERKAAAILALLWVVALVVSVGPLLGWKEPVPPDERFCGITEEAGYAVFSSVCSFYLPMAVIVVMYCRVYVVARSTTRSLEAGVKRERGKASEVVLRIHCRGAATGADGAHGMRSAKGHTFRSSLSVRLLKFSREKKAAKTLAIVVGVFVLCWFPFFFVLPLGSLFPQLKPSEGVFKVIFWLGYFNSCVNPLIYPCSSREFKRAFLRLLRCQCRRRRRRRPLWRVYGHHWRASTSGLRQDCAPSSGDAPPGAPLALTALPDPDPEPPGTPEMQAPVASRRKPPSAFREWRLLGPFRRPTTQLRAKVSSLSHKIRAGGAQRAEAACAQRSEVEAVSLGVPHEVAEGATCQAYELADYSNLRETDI

5-HT7 = 5-HT7 (Homo sapiens, UniProt P34969); assay: Secondary radioligand binding assay (Ki)
Chain of 5-HT7 (P34969 whole entry, species assumed): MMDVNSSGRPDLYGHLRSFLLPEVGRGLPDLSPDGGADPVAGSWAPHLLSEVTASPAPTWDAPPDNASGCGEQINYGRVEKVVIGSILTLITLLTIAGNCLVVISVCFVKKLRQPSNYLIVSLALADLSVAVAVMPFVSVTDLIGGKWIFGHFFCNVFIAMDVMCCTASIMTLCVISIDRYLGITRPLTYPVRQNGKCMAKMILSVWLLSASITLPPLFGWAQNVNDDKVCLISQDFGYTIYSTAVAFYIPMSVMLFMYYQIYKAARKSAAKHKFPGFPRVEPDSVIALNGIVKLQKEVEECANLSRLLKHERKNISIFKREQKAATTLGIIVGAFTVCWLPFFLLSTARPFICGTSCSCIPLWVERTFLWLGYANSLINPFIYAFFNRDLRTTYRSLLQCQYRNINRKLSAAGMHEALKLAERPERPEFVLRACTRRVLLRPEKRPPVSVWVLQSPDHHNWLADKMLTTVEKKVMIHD
Method: as §8, §9, §1, §2, §3

5-HT1D = 5-HT1D (Homo sapiens, UniProt P28221); assay: Secondary radioligand binding assay (Ki)
Chain of 5-HT1D (P28221 whole entry, species assumed): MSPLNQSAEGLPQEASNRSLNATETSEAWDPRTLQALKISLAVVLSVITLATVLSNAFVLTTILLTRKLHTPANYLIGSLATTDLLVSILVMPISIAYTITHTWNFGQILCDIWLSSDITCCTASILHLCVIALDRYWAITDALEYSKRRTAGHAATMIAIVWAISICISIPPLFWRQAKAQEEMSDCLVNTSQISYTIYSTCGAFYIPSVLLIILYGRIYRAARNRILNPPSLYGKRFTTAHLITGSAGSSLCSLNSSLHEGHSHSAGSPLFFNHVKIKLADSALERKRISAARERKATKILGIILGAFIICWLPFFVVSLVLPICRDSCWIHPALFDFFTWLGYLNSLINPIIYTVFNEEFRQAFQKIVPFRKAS
Method: as §8, §9, §1, §2, §3

Alpha1D [2] = biological target: T3, Alpha1D; assay: Secondary radioligand binding assay (Ki)
Method: as §1, §2, §3, §4, §5, §6, §7

5-HT2A = 5-HT2A (Homo sapiens, UniProt P28223); assay: Secondary radioligand binding assay (Ki)
Chain of 5-HT2A (P28223 whole entry, species assumed): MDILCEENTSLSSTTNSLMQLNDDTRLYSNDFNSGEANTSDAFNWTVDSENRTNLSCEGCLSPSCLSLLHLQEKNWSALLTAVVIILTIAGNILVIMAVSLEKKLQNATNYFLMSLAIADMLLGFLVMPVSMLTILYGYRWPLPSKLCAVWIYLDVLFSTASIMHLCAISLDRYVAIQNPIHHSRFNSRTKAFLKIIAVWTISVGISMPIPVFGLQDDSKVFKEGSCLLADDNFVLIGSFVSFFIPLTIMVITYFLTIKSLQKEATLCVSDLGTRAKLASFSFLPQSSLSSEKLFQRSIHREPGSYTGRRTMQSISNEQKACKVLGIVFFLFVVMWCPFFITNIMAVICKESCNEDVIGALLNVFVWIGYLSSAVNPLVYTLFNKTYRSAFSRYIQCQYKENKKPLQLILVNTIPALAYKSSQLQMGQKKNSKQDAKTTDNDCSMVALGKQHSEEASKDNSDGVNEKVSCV
Method: as §8, §9, §1, §2, §3

dopamine D1 = dopamine D1 (Homo sapiens, UniProt P21728); assay: Secondary radioligand binding assay (Ki)
Chain of dopamine D1 (P21728 whole entry): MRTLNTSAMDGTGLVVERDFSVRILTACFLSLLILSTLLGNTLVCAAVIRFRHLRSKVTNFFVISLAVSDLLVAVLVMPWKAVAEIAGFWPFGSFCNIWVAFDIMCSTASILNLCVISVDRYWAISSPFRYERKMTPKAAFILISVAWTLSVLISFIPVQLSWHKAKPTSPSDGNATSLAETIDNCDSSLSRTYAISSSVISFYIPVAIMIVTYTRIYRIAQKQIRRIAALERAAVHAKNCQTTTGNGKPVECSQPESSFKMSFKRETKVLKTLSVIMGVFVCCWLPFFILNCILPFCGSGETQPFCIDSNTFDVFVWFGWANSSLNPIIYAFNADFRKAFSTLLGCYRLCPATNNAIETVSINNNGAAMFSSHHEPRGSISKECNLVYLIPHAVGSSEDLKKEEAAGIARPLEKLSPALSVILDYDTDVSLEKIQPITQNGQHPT
Method: as §1, §2, §3
Assay Buffers: Dopamine Binding Buffer (50 mM NaCl, 50 mM HEPES-HCl, 5 mM MgCl2, 0.5 mM EDTA, pH 7.4)
as §5
The method is carried out in the manner described for the serotonin receptor assay above. Eleven dilutions (5× assay concentration) of the test and reference (see Table 19) compounds are prepared in Dopamine Binding Buffer by serial dilution, as previously described. Radioligand is diluted to five times the assay concentration (see Table 20) in Dopamine Binding Buffer.

5-HT3 = biological target: T4, 5-HT3 (Homo sapiens, UniProt P46098); assay: Secondary radioligand binding assay (Ki)
T4 sequence (P46098 24-478): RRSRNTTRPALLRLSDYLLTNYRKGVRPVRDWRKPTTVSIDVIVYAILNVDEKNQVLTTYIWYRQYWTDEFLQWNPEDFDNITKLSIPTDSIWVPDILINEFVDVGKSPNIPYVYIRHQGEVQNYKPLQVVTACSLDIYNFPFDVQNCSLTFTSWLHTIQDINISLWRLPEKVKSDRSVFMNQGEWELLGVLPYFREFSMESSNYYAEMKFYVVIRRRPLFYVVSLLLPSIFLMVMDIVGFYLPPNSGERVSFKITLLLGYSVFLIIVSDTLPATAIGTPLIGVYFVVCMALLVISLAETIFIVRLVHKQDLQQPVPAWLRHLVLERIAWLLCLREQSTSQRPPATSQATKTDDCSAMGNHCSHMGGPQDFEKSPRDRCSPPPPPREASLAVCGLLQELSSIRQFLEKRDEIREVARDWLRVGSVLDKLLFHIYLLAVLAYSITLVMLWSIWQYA
Method: as §8, §9, §1
The 250 μl reactions are incubated at room temperature and shielded from light (to prevent photolysis of light-sensitive ligands) for 1.5 hours, then harvested by rapid filtration onto Whatman GF/B glass fiber filters pre-soaked with 0.3% polyethyleneimine using a 96-well Brandel harverster. Four rapid 500 μl washes are performed with chilled Standard Binding Buffer to reduce non-specific binding. Filters are placed in 6 ml scintillation tubes and allowed to dry overnight. […] The tubes are capped, labeled, and counted by liquid scintillation counting. […] The filter mats are dried, then scintillant is melted onto the filters and the radioactivity retained on the filters is counted in a Microbeta scintillation counter. […]

[3] = read-out: Experimental Receptor Binding Data-Ki ALPHA_1B, Table 25, GPCR panel
[4] = read-out: Experimental Receptor Binding Data-Ki ALPHA_1A, Table 25, GPCR panel
[5] = read-out: Experimental Receptor Binding Data-Ki ALPHA_1D, Table 25, GPCR panel
[6] = read-out: Experimental Receptor Binding Data-Ki D1, Table 25, GPCR panel

In the case of `COc1ccc2c(c1)C(=O)N(CCCN1CCN(c3ccccc3OC)CC1)C2` [GFR-VII-273], the Ki (α1B (Alpha1B); [3]) is reported as 323 nM, the Ki (α1B (Alpha1B); read-out: Kiα1B) is reported as 323 nM and the Ki (α1A (Alpha1A); [4]) is reported as 64.9 nM. The Ki (α1A (Alpha1A); read-out: Kiα1A) was 64.9 nM, the Ki (5-HT1B) was 362 nM and the “Alpha1D (% inh)” value (Alpha1D [1]) was 99.3 % inh. For the same molecule, the Ki (5-HT7) was 545 nM, the Ki (5-HT1D) was 1000 nM and the Ki (Alpha1D [2]; [5]) was 81.1 nM. The Ki (Alpha1D [2]; read-out: Kiα1D) was 81.1 nM and the Ki (5-HT2A) was 956 nM.

`COc1ccc2c(c1)C(=O)N(CCN1CCN(c3ccccc3OC)CC1)C2` [GFR-VII-280-HCl] showed a Ki (α1B (Alpha1B)) of 29.1 nM, a Ki (α1A (Alpha1A)) of 8.5 nM and a Ki (5-HT1B) of 378 nM. For the same molecule, the “Alpha1D (% inh)” value (Alpha1D [1]) was 98.7 % inh, the Ki (5-HT7) was 529 nM and the Ki (5-HT1D) was 176 nM. For the same molecule, the Ki (Alpha1D [2]) was 5.1 nM.

`COc1ccc2c(c1)C(=O)N(CCN1CCN(c3ccccc3OC)CC1)C2` [GFR-VII-280] was tested, and the Ki (α1B (Alpha1B); [3]) was 38.7 nM, the Ki (α1B (Alpha1B); read-out: Kiα1B) was 38.7 nM and the Ki (α1A (Alpha1A); [4]) was 15.9 nM. The Ki (α1A (Alpha1A); read-out: Kiα1A) was 15.9 nM, the Ki (5-HT1B; read-out: Experimental Receptor Binding Data-Ki 5HT1B, Table 25, GPCR panel) was 306 nM and the “Alpha1D (% inh)” value (Alpha1D [1]) was 97.3 % inh. The Ki (5-HT1D; read-out: Experimental Receptor Binding Data-Ki 5HT1D, Table 25, GPCR panel) was 139 nM, the Ki (Alpha1D [2]; [5]) was 12.4 nM and the Ki (Alpha1D [2]; read-out: Kiα1D) was 12.4 nM.

In the case of `COc1cc2c(cc1OC)C(=O)N(CCCCN1CCN(c3ccccc3OC)CC1)C2` [GFR-VII-285], the Ki (dopamine D1; [6]) is reported as 531 nM, the Ki (α1B (Alpha1B); [3]) is reported as 19.3 nM and the Ki (α1B (Alpha1B); read-out: Kiα1B) is reported as 19.3 nM. For the same molecule, the Ki (α1A (Alpha1A); [4]) was 0.9 nM, the Ki (α1A (Alpha1A); read-out: Kiα1A) was 0.9 nM and the Ki (5-HT1B) was 130 nM. For the same molecule, the “Alpha1D (% inh)” value (Alpha1D [1]) was 96.8 % inh, the Ki (5-HT7) was 228 nM and the Ki (5-HT1D) was 298 nM. The Ki (Alpha1D [2]; [5]) was 4.4 nM, the Ki (Alpha1D [2]; read-out: Kiα1D) was 4.4 nM and the Ki (5-HT2A) was 270 nM.

Work on `COc1ccc2c(c1)CN(CCCN1CCN(c3ccccc3OC)CC1)C2=O` [GFR-VII-290] yielded a Ki (dopamine D1; [6]) of 2730 nM, a Ki (α1B (Alpha1B); [3]) of 608 nM and a Ki (α1B (Alpha1B); read-out: Kiα1B) of 608 nM. For the same molecule, the Ki (α1A (Alpha1A); [4]) was 59.9 nM, the Ki (α1A (Alpha1A); read-out: Kiα1A) was 59.9 nM and the “Alpha1D (% inh)” value (Alpha1D [1]) was 100.5 % inh. The Ki (5-HT7) was 732 nM, the Ki (5-HT1D) was 829 nM and the Ki (Alpha1D [2]; [5]) was 56 nM. For the same molecule, the Ki (Alpha1D [2]; read-out: Kiα1D) was 56 nM and the Ki (5-HT2A) was 1000 nM.

For `CC1Cc2ccccc2N1C(=O)CN1CCN(Cc2ccccc2)CC1` (stereo not shown) [STT-00185638, 2-[-4-(benzyl)-piperazin-1-yl]-1-(2-methy-2,3-dihydro-indol-1-yl)-ethanone], the Ki (dopamine D1) was 6360 nM, the Ki (α1A (Alpha1A)) was 2060 nM and the “Alpha1D (% inh)” value (Alpha1D [1]) was 42.8 % inh. The Ki (5-HT7) was 4360 nM and the Ki (5-HT3) was 2110 nM.
